Patent US9409905B2, “Antibacterial compounds and methods for use” (PTC THERAPEUTICS, INC., priority 2011, dated 2016)
≈ marks a conversion by molar mass, not a printed value.

Columns and labels:
[1] = test system: Escherichia coli (E. coli) BAS849; assay: Antibacterial activity, microbroth dilution MIC (Table 1); format: cell-based; details: microbroth dilution, super sensitive Gram-negative E. coli BAS849, read-out: MIC, BAS849
Method in brief: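 Microbroth dilution was used. MIC, in μg/mL, is the lowest drug concentration preventing macroscopically visible growth under the test conditions.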

[2] = test system: Staphylococcus aureus (S. aureus) 29213; assay: as above; format: cell-based; details: microbroth dilution, Gram-positive S. aureus 29213, read-out: MIC, 29213
Method in brief: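 MIC (μg/mL) is taken as the lowest concentration with no macroscopically visible growth. Strains tested by microbroth dilution: Gram-positive S. aureus 29213, control Gram-negative E. coli 25922, and super-sensitive E. coli BAS849.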

E. coli 25922 = assay: as above; format: cell-based, Escherichia coli; details: Escherichia coli; microbroth dilution; control Gram-negative E. coli 25922 strain; read-out: MIC, 25922
Method in brief: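 Broth microdilution against S. aureus 29213, E. coli 25922 and hypersensitive E. coli BAS849. MIC in μg/mL is the lowest drug concentration preventing macroscopically visible growth under test conditions.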

E. coli LZ3111 = assay: Antibacterial activity, MIC, quinolone resistant strain (Table 2); format: cell-based; details: Escherichia coli, LZ3111, read-out: MIC LZ3111
Method in brief: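 MIC values (μg/mL) came from a microbroth dilution assay, scored as the lowest drug concentration at which no growth was visible by eye.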

E. coli ELZ4000 = assay: Antibacterial activity, MIC, multi-drug resistant clinical isolate (Table 3); format: cell-based; details: Escherichia coli, ELZ4000, read-out: MIC ELZ4000
Method in brief: (§1)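 Compounds were serially diluted in broth microdilution format and growth was scored visually; the MIC is the lowest concentration at which no macroscopically visible growth occurred, expressed in μg/mL.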

E. coli ELZ4251 = assay: as above; format: cell-based; details: Escherichia coli
Method in brief: as §1

[3] = test system: Pseudomonas aeruginosa (P. aeruginosa) 27853; assay: Antibacterial activity, MIC (Table 5); format: cell-based; details: P. aeruginosa 27853, read-out: MIC, 27853
Method in brief: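 Values are MICs in μg/mL, read as the lowest concentration at which no growth is visible by eye. They were determined by a microbroth dilution method.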

[4] = test system: Haemophilus influenzae (H. influenzae) 49247; assay: Antibacterial activity, MIC (Table 6); format: cell-based
From the text: (§2) The antibacterial activity from a microbroth dilution method may be presented as the minimum inhibitory concentration (MIC in μg/mL). The MIC value is the lowest concentration of drug which prevents macroscopically visible growth under test conditions.
(§3) Antibacterial activity of test compounds against the Gram-negative bacteria Haemophilus influenzae (H. influenzae) 49247 is shown in Table 6, Moraxella catarrhalis (M. catarrhalis) 25238 is shown in Table 7 and Neisseria meningitidis (N. meningitidis) 13090 is shown in Table 8.

[5] = test system: Neisseria meningitidis (N. meningitidis) 13090; assay: Antibacterial activity, MIC (Table 8); format: cell-based
From the text: as §2, §3

[6] = test system: Acinetobacter baumannii (A. baumannii) BAA747; assay: Antibacterial activity, MIC (Table 4); format: cell-based; details: A. baumannii BAA747, read-out: MIC, BAA747
Method in brief: (§4)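 The resistant panel comprises multi-drug resistant clinical isolates. All strains were tested by microbroth dilution, with the MIC in μg/mL taken as the lowest concentration that prevented macroscopically visible growth.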

[7] = test system: Klebsiella pneumoniae (K. pneumoniae) 35657; assay: Antibacterial activity, MIC (Table 4); format: cell-based; details: K. pneumoniae 35657, read-out: MIC, 35657
Method in brief: as §4

A. baumannii MXX2240 = assay: Antibacterial activity, MIC, resistant strain (Table 4); format: cell-based; details: Acinetobacter baumannii, MXX2240; resistant A. baumannii MMX2240, multi-drug resistant clinical isolate; read-out: MIC, MMX2240
Method in brief: as §4

K. pneumoniae MXX1232 = assay: as above; format: cell-based; details: Klebsiella pneumoniae, MXX1232; resistant K. pneumoniae MMX1232, multi-drug resistant clinical isolate; read-out: MIC, MMX1232
Method in brief: as §4

[8] = test system: Moraxella catarrhalis (M. catarrhalis) 25238; assay: Antibacterial activity, MIC (Table 7); format: cell-based
From the text: as §2, §3

Row | SMILES | MIC [1] | MIC [2] | MIC (E. coli 25922) | MIC (E. coli LZ3111) | MIC (E. coli ELZ4000) | MIC (E. coli ELZ4251) | MIC [3] | MIC [4] | MIC [5] | MIC [6] | MIC [7] | MIC (A. baumannii MXX2240) | MIC (K. pneumoniae MXX1232) | MIC [8]
1 | CCc1cc(C(=O)O)c(=O)[nH]c1-c1ccc2c(c1)CCCN2C [Cpd 1, 5-ethyl-6-(1-methyl-1,2,3,4-tetrahydroquinolin-6-yl)-2-oxo-1,2-dihydropyridine-3-carboxylic acid] | < 1 µg/mL | 12.5 to 150 µg/mL (≈ 40 to 480 µM) | 1 to 3.5 µg/mL (≈ 3.2 to 11.2 µM) | 12.5 to 150 µg/mL (≈ 40 to 480 µM) | 12.5 to 150 µg/mL (≈ 40 to 480 µM) | 12.5 to 150 µg/mL (≈ 40 to 480 µM) | 12.5 to 150 µg/mL (≈ 40 to 480 µM) | < 1 µg/mL | < 1 µg/mL | – | – | – | – | –
2 | CCc1cc(C(=O)O)c(=O)[nH]c1-c1ccc2c(c1)CCN2C [Cpd 5, 5-ethyl-6-(1-methylindolin-5-yl)-2-oxo-1,2-dihydropyridine-3-carboxylic acid] | < 1 µg/mL | 12.5 to 150 µg/mL (≈ 41.9 to 503 µM) | 3.5 to 12.5 µg/mL (≈ 11.7 to 41.9 µM) | 12.5 to 150 µg/mL (≈ 41.9 to 503 µM) | 12.5 to 150 µg/mL (≈ 41.9 to 503 µM) | 12.5 to 150 µg/mL (≈ 41.9 to 503 µM) | 12.5 to 150 µg/mL (≈ 41.9 to 503 µM) | < 1 µg/mL | < 1 µg/mL | 1 to 3.5 µg/mL (≈ 3.35 to 11.7 µM) | 3.5 to 12.5 µg/mL (≈ 11.7 to 41.9 µM) | 12.5 to 150 µg/mL (≈ 41.9 to 503 µM) | 12.5 to 150 µg/mL (≈ 41.9 to 503 µM) | –
3 | CCc1c(-c2ccc3c(c2)CCN3C)[nH]c(=O)c(C(=O)O)c1O [Cpd 6, 5-ethyl-4-hydroxy-6-(1-methylindolin-5-yl)-2-oxo-1,2-dihydropyridine-3-carboxylic acid] | < 1 µg/mL | 3.5 to 12.5 µg/mL (≈ 11.1 to 39.8 µM) | 3.5 to 12.5 µg/mL (≈ 11.1 to 39.8 µM) | 12.5 to 150 µg/mL (≈ 39.8 to 477 µM) | 12.5 to 150 µg/mL (≈ 39.8 to 477 µM) | 12.5 to 150 µg/mL (≈ 39.8 to 477 µM) | 12.5 to 150 µg/mL (≈ 39.8 to 477 µM) | < 1 µg/mL | < 1 µg/mL | 1 to 3.5 µg/mL (≈ 3.18 to 11.1 µM) | 12.5 to 150 µg/mL (≈ 39.8 to 477 µM) | 1 to 3.5 µg/mL (≈ 3.18 to 11.1 µM) | 12.5 to 150 µg/mL (≈ 39.8 to 477 µM) | –
4 | CCc1cc(C(=O)O)c(=O)[nH]c1-c1ccc2c(ccn2C)c1 [Cpd 21, 5-ethyl-6-(1-methyl-1H-indol-5-yl)-2-oxo-1,2-dihydropyridine-3-carboxylic acid] | < 1 µg/mL | 3.5 to 12.5 µg/mL (≈ 11.8 to 42.2 µM) | < 1 µg/mL | 12.5 to 150 µg/mL (≈ 42.2 to 506 µM) | 12.5 to 150 µg/mL (≈ 42.2 to 506 µM) | 12.5 to 150 µg/mL (≈ 42.2 to 506 µM) | 12.5 to 150 µg/mL (≈ 42.2 to 506 µM) | < 1 µg/mL | < 1 µg/mL | < 1 µg/mL | < 1 µg/mL | 12.5 to 150 µg/mL (≈ 42.2 to 506 µM) | 12.5 to 150 µg/mL (≈ 42.2 to 506 µM) | –
5 | CCc1c(-c2ccc3c(ccn3C)c2)[nH]c(=O)c(C(=O)O)c1O [Cpd 22, 5-ethyl-4-hydroxy-6-(1-methyl-1H-indol-5-yl)-2-oxo-1,2-dihydropyridine-3-carboxylic acid] | < 1 µg/mL | 1 to 3.5 µg/mL (≈ 3.2 to 11.2 µM) | < 1 µg/mL | 1 to 3.5 µg/mL (≈ 3.2 to 11.2 µM) | 3.5 to 12.5 µg/mL (≈ 11.2 to 40 µM) | 3.5 to 12.5 µg/mL (≈ 11.2 to 40 µM) | 12.5 to 150 µg/mL (≈ 40 to 480 µM) | < 1 µg/mL | < 1 µg/mL | < 1 µg/mL | 1 to 3.5 µg/mL (≈ 3.2 to 11.2 µM) | < 1 µg/mL | 12.5 to 150 µg/mL (≈ 40 to 480 µM) | < 1 µg/mL
6 | CCc1c(-c2ccc3c(c2)cc(C)n3C)[nH]c(=O)c(C(=O)O)c1O [Cpd 38, 6-(1,2-dimethyl-1H-indol-5-yl)-5-ethyl-4-hydroxy-2-oxo-1,2-dihydropyridine-3-carboxylic acid] | < 1 µg/mL | 1 to 3.5 µg/mL (≈ 3.06 to 10.7 µM) | 1 to 3.5 µg/mL (≈ 3.06 to 10.7 µM) | 12.5 to 150 µg/mL (≈ 38.3 to 460 µM) | 12.5 to 150 µg/mL (≈ 38.3 to 460 µM) | 12.5 to 150 µg/mL (≈ 38.3 to 460 µM) | – | < 1 µg/mL | < 1 µg/mL | – | – | – | – | –
7 | CCc1cc(C(=O)O)c(=O)[nH]c1-c1ccc2c(c1)cc(CO)n2C [Cpd 39, 5-ethyl-6-(2-(hydroxymethyl)-1-methyl-1H-indol-5-yl)-2-oxo-1,2-dihydropyridine-3-carboxylic acid] | < 1 µg/mL | 3.5 to 12.5 µg/mL (≈ 10.7 to 38.3 µM) | 1 to 3.5 µg/mL (≈ 3.06 to 10.7 µM) | 12.5 to 150 µg/mL (≈ 38.3 to 460 µM) | 12.5 to 150 µg/mL (≈ 38.3 to 460 µM) | 12.5 to 150 µg/mL (≈ 38.3 to 460 µM) | – | < 1 µg/mL | < 1 µg/mL | – | – | – | – | –
8 | CCc1c(-c2ccc3c(c2)cc(CO)n3C)[nH]c(=O)c(C(=O)O)c1O [Cpd 40, 5-ethyl-4-hydroxy-6-(2-(hydroxymethyl)-1-methyl-1H-indol-5-yl)-2-oxo-1,2-dihydropyridine-3-carboxylic acid] | < 1 µg/mL | 1 to 3.5 µg/mL (≈ 2.92 to 10.2 µM) | 1 to 3.5 µg/mL (≈ 2.92 to 10.2 µM) | 3.5 to 12.5 µg/mL (≈ 10.2 to 36.5 µM) | 12.5 to 150 µg/mL (≈ 36.5 to 438 µM) | 3.5 to 12.5 µg/mL (≈ 10.2 to 36.5 µM) | 3.5 to 12.5 µg/mL (≈ 10.2 to 36.5 µM) | < 1 µg/mL | < 1 µg/mL | 1 to 3.5 µg/mL (≈ 2.92 to 10.2 µM) | – | 3.5 to 12.5 µg/mL (≈ 10.2 to 36.5 µM) | 12.5 to 150 µg/mL (≈ 36.5 to 438 µM) | –
9 | CCc1cc(C(=O)O)c(=O)[nH]c1-c1ccc2c(cnn2C)c1 [Cpd 41, 5-ethyl-6-(1-methyl-1H-indazol-5-yl)-2-oxo-1,2-dihydropyridine-3-carboxylic acid] | < 1 µg/mL | 12.5 to 150 µg/mL (≈ 42 to 505 µM) | 3.5 to 12.5 µg/mL (≈ 11.8 to 42 µM) | 12.5 to 150 µg/mL (≈ 42 to 505 µM) | 12.5 to 150 µg/mL (≈ 42 to 505 µM) | 12.5 to 150 µg/mL (≈ 42 to 505 µM) | 12.5 to 150 µg/mL (≈ 42 to 505 µM) | < 1 µg/mL | < 1 µg/mL | 12.5 to 150 µg/mL (≈ 42 to 505 µM) | 12.5 to 150 µg/mL (≈ 42 to 505 µM) | 12.5 to 150 µg/mL (≈ 42 to 505 µM) | 12.5 to 150 µg/mL (≈ 42 to 505 µM) | –
10 | CCc1c(-c2ccc3c(c2)cc(CNC)n3C)[nH]c(=O)c(C(=O)O)c1O [Cpd 203, 5-ethyl-4-hydroxy-6-(1-methyl-2-((methylamino)methyl)-1H-indol-5-yl)-2-oxo-1,2-dihydropyridine-3-carboxylic acid] | < 1 µg/mL | 3.5 to 12.5 µg/mL (≈ 9.85 to 35.2 µM) | < 1 µg/mL | 1 to 3.5 µg/mL (≈ 2.81 to 9.85 µM) | 3.5 to 12.5 µg/mL (≈ 9.85 to 35.2 µM) | 1 to 3.5 µg/mL (≈ 2.81 to 9.85 µM) | 1 to 3.5 µg/mL (≈ 2.81 to 9.85 µM) | < 1 µg/mL | < 1 µg/mL | < 1 µg/mL | – | 3.5 to 12.5 µg/mL (≈ 9.85 to 35.2 µM) | 12.5 to 150 µg/mL (≈ 35.2 to 422 µM) | < 1 µg/mL
11 | C=CCNCc1cc2cc(-c3[nH]c(=O)c(C(=O)O)c(O)c3CC)ccc2n1C.Cl [Cpd 243, 6-(2-((allylamino)methyl)-1-methyl-1H-indol-5-yl)-5-ethyl-4-hydroxy-2-oxo-1,2-dihydropyridine-3-carboxylic acid hydrochloride] | < 1 µg/mL | 3.5 to 12.5 µg/mL | < 1 µg/mL | 1 to 3.5 µg/mL | 3.5 to 12.5 µg/mL | 1 to 3.5 µg/mL | 3.5 to 12.5 µg/mL | < 1 µg/mL | < 1 µg/mL | < 1 µg/mL | < 1 µg/mL | – | 12.5 to 150 µg/mL | < 1 µg/mL
